The values below come from article PMC8329280 (Scientific Reports, 2021).

The subject of data set [1] is Candida albicans. The format is cell-based. The protocol:
(§1) The L- and D- forms of Ctl and also the corresponding L- and D-forms of the scramble peptides were tested by Atlangram (Nantes, France) against resistant Gram-negative bacteria (Escherichia coli, Klebsiella pneumoniae, Enterobacter cloacae, Enterobacter aerogenes, Serratia marcescens, Morganella morganii, Pseudomonas aeruginosa), MSSA, MRSA and yeast (C. albicans). The MICs were determined according to the CASFM/EUCAST 2018 (Comité de l’Antibiogramme de la Société Française de Microbiologie).

In data set [2] the test system is Morganella morganii. It is filed as cell-based. Here is the method: as §1
Data set [3] concerns Pseudomonas aeruginosa. The format is cell-based. Here is the method: as §1
Data set [4] relates to Serratia marcescens. It is filed as cell-based. Here is the method:
as §1

The subject of data set [5] is Citrobacter freundii. The format is cell-based.
The test system of data set [6] is MRSA. The format is cell-based, Staphylococcus aureus. The protocol: as §1
Data set [7] has as its system MSSA. The format is cell-based, Staphylococcus aureus. Here is the method: as §1
Data set [8] relates to Escherichia coli. It is filed as cell-based. The protocol: as §1
Data set [9] deals with methicillin sensitive S. aureus (MSSA, strain 49775). It is filed as cell-based, Staphylococcus aureus. To be noted: for MIC100 MSSA: MSSA strain 49775, MHB medium pH 7.4, 24 h at 37 °C, A620 nm, triplicates. The protocol: (§2) Antibacterial assays were realized to the method previously reported[22],[25]. S. aureus strains were pre-cultured for 20 h in aerobic conditions at 37 °C in Mueller–Hinton Broth (MHB) medium (Becton–Dickinson Microbiology Company, Sparks, USA) (pH 7.4). Bacteria were suspended at absorbance of 0.001 at 620 nm in the MHB medium. Antibacterial activity was tested for 24 h incubation at 37 °C with shaking by measuring the inhibition of bacterial growth. Ten µl of final volumes (10–200 µg/mL) of synthetic peptides were incubated in microtitration plates with 90 µl of a mid-logarithmic phase culture of bacteria, with a starting absorbance of 0.001 at 620 nm. A mixture of Tetracycline (10 mg/L) and Cefotaxime (0.1 mg/L) were used as positive controls. Microbial growth was assessed by the increase of absorbance after 24 h incubation at 37 °C. The A620 nm value of control cultures growing in the absence of peptide and antibiotics was defined as 100% growth. A620 nm value with the antibiotics (Tetracycline and Cefotaxime) was taken as 100% inhibition. Absence of bacterial growth was verified by agar plate spreading. Each assay was performed in triplicates. Data were shown as mean + /− standard deviation of three independent experiments; p < 0.05.

The test system of data set [10] is methicillin resistant S. aureus (MRSA, strain S1). Kind of data set: Antibacterial growth inhibition assay, MRSA strain S1. It is filed as cell-based, Staphylococcus aureus. As to conditions: MHB medium pH 7.4, 24 h at 37 °C, A620 nm, triplicates. Here is the method:
as §2

Data set [11] deals with C. albicans (ATCC 10231TM). The experiment in a line: Antimicrobial assay against C. albicans ATCC 10231. As to conditions: Sabouraud medium, 24 h at 37 °C, OD620nm, lowest concentration inhibiting 100% of growth. It is filed as cell-based, Candida albicans. The protocol:
Antimicrobial assays against C. albicans (ATCC 10231TM) were realized according to the method previously reported. C. albicans was cultured in Sabouraud medium (Sigma-Aldrich, Saint Louis, USA) supplemented with tetracycline (10 μg/mL) and cefotaxime (10 μg/mL) at 37 °C for 24 h. C. albicans (OD620nm = 0.001) were plated in 96-well plates and treated either with different concentrations of the peptides of interest, and/or with different concentrations of voriconazole (VCZ) (Sigma-Aldrich, Saint Louis, USA). As a positive control, cells were treated with 10 μg/mL VCZ. After 24 h incubation, yeast growth was assessed by optical density OD620nm using a spectrophotometer Multiskan EX Microplate Reader Lab (Thermo Fisher Scientific, Waltham, MA, USA).
The MIC of the antifungal agents is defined as the lowest concentration of drug able to inhibit 100% of the growth of C. albicans.

Data set [12] has as its system Human Peripheral Blood Mononuclear Cells (PBMCs). Kind of data set: Cytokine release assay, Bio-Plex Multiplex Immunoassay. It is filed as cell-based. As to conditions: 30 µM, 24 h, IL-6, IL-8, IL-10 pointed out, two healthy volunteers. The source says:
(§3) The release of cytokines IL-6, IL-8, IL-10 and TNF-α induced after the treatment of immune cells by Cts was realized by the use of an automated ELISA immunoassay (Immulite One, Siemens la Garenne-Colombe, France) and with the Bio-Plex Multiplex Immunoassay system (Bio-Rad, Marnes-la-Coquette) for the treatment of Human Peripheral Blood Mononuclear Cells (PBMCs) by L-Ctl, D-Ctl, Ctl-C, D-Ctl-C and P3. PBMCs from healthy volunteers were obtained from the blood transfusion centre of Strasbourg (Etablissement Français du Sang, Strasbourg) and isolated by density gradient centrifugation using Lymphoprep (Stemcell Technologies). PMBC were then maintained in AIM V medium (Thermo Fisher Scientific, Waltham, MA, USA) at 37 °C in a 5% CO2 humidified incubator and treated for 24 h with 30 µM of each peptide (L-Ctl, D-Ctl, Ctl-C, D-Ctl-C and P3). Three technical replicates were performed for each condition. Supernatants were then filtered and assessed for cytokine dosage according to the manufacturer’s instructions.

Data set [13] relates to CD14 cells. Kind of data set: Cytokine release assay, ELISA. As to conditions: 24 h, cells from 2 patients. The format is cell-based, human. The protocol:
Three types of immune cells were prepared from human monocytes provided from the EFS (Etablissement Français du Sang). Dendritic cells (DC1a), CD14 and macrophages were obtained after treatment of monocytes by cytokines according to the methods previously reported[31],[32] and the identification of the immune cells was validated by using flow cytometry analysis (Fluorescence Activated Cell Sorting, FACS).
as §3
For orientation: In an ELISA, binding on a coated surface is turned into a signal by an enzyme label.

The subject of data set [14] is Endoprotease Glu-C from S. aureus V8 (E.C. 3.4.21.19). Kind of data set: endoprotease Glu-C in 50 mM Tris–HCl pH 8.2 or PBS. As to conditions: S. aureus V8, 37 °C, up to 18 h.
Data set [15] has as its system proteases produced by Staphylococcus aureus. The experiment in a line: proteases produced by Staphylococcus aureus. As to conditions: cited from earlier work.
Data set [16] has as its system Endoprotease Glu-C from S. aureus V8 (E.C. 3.4.21.19). Kind of data set: Endoprotease Glu-C in 50 mM Tris–HCl pH 8.2 or PBS. As to conditions: S. aureus V8 (enzyme source), 37 °C, up to 18 h.

≈ marks a conversion by molar mass, not a printed value. Entries after “also recorded” stand apart in the source; their conditions may differ. Starred links: 1 amine or outer side, 2 acyl side, 3 side chain; linkers in the order of their positions; H or OH if unused. Positions of bridges follow the written chain, without caps; N, C: chain ends. Non-standard residues stand in square brackets, D forms with d. Residues, ends and D or L forms follow the SMILES beside them. Chains are numbered I, II in the order given. X1 = O=C1CC([*:1])C(=O)N1CCOCCOCCOCCN1C(=O)CC([*:2])C1=O; Dopa = N[C@@H](Cc1ccc(O)c(O)c1)C(=O)O Some results are limits rather than exact numbers.

As for `CSCC[C@@H](NC(=O)[C@H](N)Cc1ccccc1)C(=O)N[C@H](CCCNC(=N)N)C(=O)N[C@H](CC(C)C)C(=O)N[C@H](CCCNC(=N)N)C(=O)N[C@H](Cc1ccc(O)cc1)C(=O)N[C@H](CCCNC(=N)N)C(=O)N[C@H](CO)C(=O)N[C@H](CO)C(=O)N[C@H](C)C(=O)N[C@H](Cc1ccccc1)C(=O)NCC(=O)NCC(=O)N[C@H](CCCNC(=N)N)C(=O)N[C@H](CCCNC(=N)N)C(=O)O` [Control D, reference compound] (H-[dF][dM][dR][dL][dR][dY][dR][dS][dS][dA][dF]GG[dR][dR]-OH), the MIC (usually the lowest concentration that inhibits growth of the organism) in data set [1] is given as 512 µg/mL (≈ 275 µM); in data set [2], above 128 µg/mL; in [3] it was above 128 µg/mL; in data set [4] it was above 128 µg/mL; in data set [5], 128 µg/mL (≈ 68.8 µM); in [6], above 128 µg/mL. This molecule also registered an MIC in data set [7] above 128 µg/mL.
With `CSCC[C@@H](NC(=O)[C@@H](CO)NC(=O)[C@H](N)CCCNC(=N)N)C(=O)N[C@H](CCCNC(=N)N)C(=O)N[C@H](CC(C)C)C(=O)N[C@H](CO)C(=O)N[C@H](Cc1ccccc1)C(=O)N[C@H](CCCNC(=N)N)C(=O)N[C@H](C)C(=O)N[C@H](CCCNC(=N)N)C(=O)NCC(=O)N[C@H](Cc1ccc(O)cc1)C(=O)NCC(=O)N[C@H](Cc1ccccc1)C(=O)N[C@H](CCCNC(=N)N)C(=O)O` [D-Ctl] (H-[dR][dS][dM][dR][dL][dS][dF][dR][dA][dR]G[dY]G[dF][dR]-OH), the minimal inhibitory concentration (MIC) in data set [1] is given as 256 µg/mL (≈ 138 µM); in data set [2], above 128 µg/mL; in [6] it was 64 µg/mL (≈ 34.4 µM). Further, in data set [8], the “MIC against several strains of E. coli” value was 8 to 32 µg/mL.
As for `CSCC[C@@H](NC(=O)[C@@H](CO)NC(=O)[C@@H](CCCNC(=N)N)NC(=O)[C@H](CCC(=O)O)NC(=O)CNC(=O)CNC(=O)[C@H](CCCNC(=N)N)NC(=O)[C@H](CC(C)C)NC(=O)[C@@H](NC(=O)[C@H](Cc1ccc(O)c(O)c1)NC(=O)[C@H](CCCCN)NC(=O)[C@H](Cc1ccc(O)c(O)c1)NC(=O)[C@H](CCCCN)NC(=O)[C@@H](N)Cc1ccc(O)c(O)c1)[C@@H](C)O)C(=O)N[C@H](CCCNC(=N)N)C(=O)N[C@H](CC(C)C)C(=O)N[C@H](CO)C(=O)N[C@H](Cc1ccccc1)C(=O)N[C@H](CCCNC(=N)N)C(=O)N[C@H](C)C(=O)N[C@H](CCCNC(=N)N)C(=O)NCC(=O)N[C@H](Cc1ccc(O)cc1)C(=O)NCC(=O)N[C@H](Cc1ccccc1)C(=O)N[C@H](CCCNC(=N)N)C(=O)O` [DOPA5T-(D)Ctl] (H-[Dopa]K[Dopa]K[Dopa]TLRGGE[dR][dS][dM][dR][dL][dS][dF][dR][dA][dR]G[dY]G[dF][dR]-OH), the IC50 (as a rule, the concentration needed to halve the response being measured) in data set [9] (methicillin sensitive (, strain 49775, 24 h)) turned out to be 35 µM.
Regarding `CSCC[C@H](NC(=O)[C@H](CO)NC(=O)[C@@H](N)CCCNC(=N)N)C(=O)N[C@@H](CCCNC(=N)N)C(=O)N[C@@H](CC(C)C)C(=O)N[C@@H](CO)C(=O)N[C@@H](Cc1ccccc1)C(=O)N[C@@H](CCCNC(=N)N)C(=O)N[C@@H](C)C(=O)N[C@@H](CCCNC(=N)N)C(=O)NCC(=O)N[C@@H](Cc1ccc(O)cc1)C(=O)NCC(=O)N[C@@H](Cc1ccccc1)C(=O)N[C@@H](CCCNC(=N)N)C(=O)N[C@@H](CSC1CC(=O)N(CCOCCOCCOCCN2C(=O)CC(SC[C@H](NC(=O)[C@H](CCCNC(=N)N)NC(=O)[C@H](Cc3ccccc3)NC(=O)CNC(=O)[C@H](Cc3ccc(O)cc3)NC(=O)CNC(=O)[C@H](CCCNC(=N)N)NC(=O)[C@H](C)NC(=O)[C@H](CCCNC(=N)N)NC(=O)[C@H](Cc3ccccc3)NC(=O)[C@H](CO)NC(=O)[C@H](CC(C)C)NC(=O)[C@H](CCCNC(=N)N)NC(=O)[C@H](CCSC)NC(=O)[C@H](CO)NC(=O)[C@@H](N)CCCNC(=N)N)C(=O)O)C2=O)C1=O)C(=O)O` (stereo partly drawn) [Peptide P3] (I: H-RSMRLSFRARGYGFRC-OH / II: H-RSMRLSFRARGYGFRC-OH; linker I:16-II:16 via X1; N-terminus and C-terminus assumed), in data set [10], the “MIC100 MRSA” value is given as 50 µM (≈ 214 µg/mL). In addition, in data set [11], the “MIC100 C. albicans” value came to 20 µM (≈ 85.6 µg/mL). Also, the “MIC100 MSSA” value in data set [9] is given as 30 µM (≈ 128 µg/mL). Further, the “release of the tested cytokines from PBMCs” value in [12] was “unable to induce te release of the tested cytokines; also recorded: unable to release significantly the tested cytokines”.
For Catestatin [Cts], in [13] (15 µM, cell type not given), the “production of IL-6” value is on record as “not modified”, the “production of IL-10” value is listed as “not modified” and the “production of TNF-α” value is “not modified”. Besides, the “decrease of the amount of IL-8 released versus controls (without peptide)” value in data set [13] (CD14, 15 µM) turned out to be 26%.
Turning to “DOPA-K-DOPA-K-DOPA-TLRGGE-RSMRLSFRARGYGFR”, the cleaved bond entry in data set [14] is “E-R, major”.
For the molecule RSMRLSFRARGYGFR, in data set [15], the not cleaved entry was “resistant to degradation by the proteases produced by Staphylococcus aureus”.
As to “RSMRLSFRARGYGFRMal-(12PEG)-MalRFGYGRARFSLRMSR [Peptide P4, dimeric form of Ctl with spacer of 12 PEG]”, in [9], the “MIC100 MSSA” value is above 100 µM.
“RSMRLSFRARGYGFRMal-(16PEG)-MalRFGYGRARFSLRMSR [Peptide P5, dimeric form of Ctl with spacer of 16 PEG]”: the “MIC100 MRSA” value in [10] is above 100 µM. Moreover, the “MIC100 C. albicans” value in [11] was determined as 50 µM. In addition, in data set [9], the “MIC100 MSSA” value is reported as above 100 µM.
For the molecule “RSMRLSFRARGYGFRMal-(46PEG)-MalRFGYGRARFSLRMSR [Peptide P6, dimeric form of Ctl with spacer of 46 PEG]”, the “MIC100 MSSA” value in data set [9] is given as above 100 µM.
Regarding TLRGGE-RSMRLSFRARGYGFR, the cleaved bond result in [16] is recorded as “R-A, major”. Moreover, in data set [14], the cleaved bond entry was “R-A, major” and the fragment found entry is on record as “TLRGGE, major”.
